Measured values reported in PubChem BioAssay AID1963435 (Molecular Pharmacology Branch, DTP, NCI, 2024).
One block for each compound: values may come before it.

Test system: PANC-1 complex spheroid growth, percent test/control
Assay: Anticancer human tumor PANC-1 cell line growth inhibition [Asc];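 note: spheroids exposed to agents for 7 days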;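 for viability, T/C: percent viability relative to DMSO vehicle wells taken as 100%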
Settings: for IC50: curve of first compound; for viability, T/C: stronger effect = lower value
Procedure, shortened: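 Stromal components (HUVEC and hMSC) are co-assembled with the cancer cells into multicellular spheroids. Drugs are then added singly or paired, at concentrations falling by half-log increments from a clinically achievable maximum, capped at 10 microM without known Cmax.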

[1] = second compound 0.0316 µM, first compound 0.0316 µM
[2] = second compound 0.0316 µM, first compound 0.1 µM
[3] = second compound 0.1 µM, first compound 0.0316 µM
[4] = second compound 0.1 µM, first compound 0.1 µM
[5] = second compound 0.316 µM, first compound 0.0316 µM
[6] = second compound 0.316 µM, first compound 0.1 µM
[7] = second compound 1 µM, first compound 0.0316 µM
[8] = second compound 1 µM, first compound 0.1 µM
[9] = second compound 3.16 µM, first compound 0.0316 µM
[10] = second compound 3.16 µM, first compound 0.1 µM
[11] = second compound 10 µM, first compound 0.0316 µM
[12] = second compound 10 µM, first compound 0.1 µM

IC50 (second compound 0.00316 µM): > 3 µM | IC50 (second compound 0.01 µM): > 3 µM | IC50 (second compound 0.0316 µM): > 3 µM | IC50 (second compound 0.1 µM): > 3 µM | IC50 (second compound 0.316 µM): > 3 µM | IC50 (second compound 1 µM): > 3 µM
SMILES: Cc1nc(N2CCC3(CC2)COC(C)C3N)c(CO)nc1Sc1ccnc(N)c1Cl (stereo unspecified) + CNC(C)C(=O)NC1CN(S(=O)(=O)c2cccc(S(=O)(=O)N3CCC4CCC(C(=O)NC(c5ccccc5)c5ccccc5)N4C(=O)C(NC(=O)C(C)NC)C3)c2)CCC2CCC(C(=O)NC(c3ccccc3)c3ccccc3)N2C1=O
viability, T/C (second compound 0.00316 µM, first compound 0.00949 µM): 94.8% | viability, T/C (second compound 0.00316 µM, first compound 0.03 µM): 85% | viability, T/C (second compound 0.00316 µM, first compound 0.0949 µM): 96.7% | viability, T/C (second compound 0.00316 µM, first compound 0.3 µM): 84.3% | viability, T/C (second compound 0.00316 µM, first compound 0.949 µM): 87.7% | viability, T/C (second compound 0.00316 µM, first compound 3 µM): 87.1% | viability, T/C (second compound 0.01 µM, first compound 0.00949 µM): 91.1% | viability, T/C (second compound 0.01 µM, first compound 0.03 µM): 82.6% | viability, T/C (second compound 0.01 µM, first compound 0.0949 µM): 79.7% | viability, T/C (second compound 0.01 µM, first compound 0.3 µM): 89.4% | viability, T/C (second compound 0.01 µM, first compound 0.949 µM): 85.8% | viability, T/C (second compound 0.01 µM, first compound 3 µM): 95.1% | viability, T/C (second compound 0.0316 µM, first compound 0.00949 µM): 93.4% | viability, T/C (second compound 0.0316 µM, first compound 0.03 µM): 79.9% | viability, T/C (second compound 0.0316 µM, first compound 0.0949 µM): 92.8% | viability, T/C (second compound 0.0316 µM, first compound 0.3 µM): 86.3% | viability, T/C (second compound 0.0316 µM, first compound 0.949 µM): 87.6% | viability, T/C (second compound 0.0316 µM, first compound 3 µM): 78.9% | viability, T/C (second compound 0.1 µM, first compound 0.00949 µM): 85.3% | viability, T/C (second compound 0.1 µM, first compound 0.03 µM): 93% | viability, T/C (second compound 0.1 µM, first compound 0.0949 µM): 90% | viability, T/C (second compound 0.1 µM, first compound 0.3 µM): 83.8% | viability, T/C (second compound 0.1 µM, first compound 0.949 µM): 90.9% | viability, T/C (second compound 0.1 µM, first compound 3 µM): 89.5% | viability, T/C (second compound 0.316 µM, first compound 0.00949 µM): 89.5% | viability, T/C (second compound 0.316 µM, first compound 0.03 µM): 84.1% | viability, T/C (second compound 0.316 µM, first compound 0.0949 µM): 86.7% | viability, T/C (second compound 0.316 µM, first compound 0.3 µM): 84.4% | viability, T/C (second compound 0.316 µM, first compound 0.949 µM): 83.4% | viability, T/C (second compound 0.316 µM, first compound 3 µM): 81.2% | viability, T/C (second compound 1 µM, first compound 0.00949 µM): 86.5% | viability, T/C (second compound 1 µM, first compound 0.03 µM): 89.8% | viability, T/C (second compound 1 µM, first compound 0.0949 µM): 82.6% | viability, T/C (second compound 1 µM, first compound 0.3 µM): 82.7% | viability, T/C (second compound 1 µM, first compound 0.949 µM): 75.6% | viability, T/C (second compound 1 µM, first compound 3 µM): 85.9%

IC50 (second compound 0.0316 µM): > 0.1 µM | IC50 (second compound 0.1 µM): > 0.1 µM | IC50 (second compound 0.316 µM): > 0.1 µM | IC50 (second compound 1 µM): > 0.1 µM | IC50 (second compound 3.16 µM): > 0.1 µM | IC50 (second compound 10 µM): > 0.1 µM
SMILES: Cn1ncnc1[C@H]1c2n[nH]c(=O)c3cc(F)cc(c23)N[C@@H]1c1ccc(F)cc1 + Cc1c(S(C)(=O)=O)c(-c2cc(F)cc(N3CCN(c4ccc(NS(=O)(=O)c5ccc(NC(CCN6CCC(C(=O)OCCCP(=O)(O)O)CC6)CSc6ccccc6)c(S(=O)(=O)C(F)(F)F)c5)cc4)CC3)c2)c(-c2ccc(Cl)cc2)n1C(C)C
viability, T/C (second compound 0.0316 µM, first compound 0.000316 µM): 101% | viability, T/C (second compound 0.0316 µM, first compound 0.001 µM): 88.4% | viability, T/C (second compound 0.0316 µM, first compound 0.00316 µM): 98.5% | viability, T/C (second compound 0.0316 µM, first compound 0.01 µM): 102% | viability, T/C [1]: 110% | viability, T/C [2]: 101% | viability, T/C (second compound 0.1 µM, first compound 0.000316 µM): 96.7% | viability, T/C (second compound 0.1 µM, first compound 0.001 µM): 103% | viability, T/C (second compound 0.1 µM, first compound 0.00316 µM): 93.5% | viability, T/C (second compound 0.1 µM, first compound 0.01 µM): 108% | viability, T/C [3]: 108% | viability, T/C [4]: 103% | viability, T/C (second compound 0.316 µM, first compound 0.000316 µM): 109% | viability, T/C (second compound 0.316 µM, first compound 0.001 µM): 108% | viability, T/C (second compound 0.316 µM, first compound 0.00316 µM): 106% | viability, T/C (second compound 0.316 µM, first compound 0.01 µM): 106% | viability, T/C [5]: 104% | viability, T/C [6]: 110% | viability, T/C (second compound 1 µM, first compound 0.000316 µM): 105% | viability, T/C (second compound 1 µM, first compound 0.001 µM): 99.3% | viability, T/C (second compound 1 µM, first compound 0.00316 µM): 105% | viability, T/C (second compound 1 µM, first compound 0.01 µM): 106% | viability, T/C [7]: 103% | viability, T/C [8]: 109% | viability, T/C (second compound 3.16 µM, first compound 0.000316 µM): 105% | viability, T/C (second compound 3.16 µM, first compound 0.001 µM): 102% | viability, T/C (second compound 3.16 µM, first compound 0.00316 µM): 107% | viability, T/C (second compound 3.16 µM, first compound 0.01 µM): 114% | viability, T/C [9]: 112% | viability, T/C [10]: 93.5% | viability, T/C (second compound 10 µM, first compound 0.000316 µM): 160% | viability, T/C (second compound 10 µM, first compound 0.001 µM): 176% | viability, T/C (second compound 10 µM, first compound 0.00316 µM): 147% | viability, T/C (second compound 10 µM, first compound 0.01 µM): 167% | viability, T/C [11]: 169% | viability, T/C [12]: 139%

IC50 (second compound 0.0316 µM): > 10 µM | IC50 (second compound 0.1 µM): > 10 µM | IC50 (second compound 0.316 µM): > 10 µM | IC50 (second compound 1 µM): > 10 µM | IC50 (second compound 3.16 µM): > 10 µM | IC50 (second compound 10 µM): > 10 µM
SMILES: O=C(c1cc(Cc2n[nH]c(=O)c3ccccc23)ccc1F)N1CCN(C(=O)C2CC2)CC1 + Cc1c(S(C)(=O)=O)c(-c2cc(F)cc(N3CCN(c4ccc(NS(=O)(=O)c5ccc(NC(CCN6CCC(C(=O)OCCCP(=O)(O)O)CC6)CSc6ccccc6)c(S(=O)(=O)C(F)(F)F)c5)cc4)CC3)c2)c(-c2ccc(Cl)cc2)n1C(C)C
viability, T/C [1]: 106% | viability, T/C [2]: 104% | viability, T/C (second compound 0.0316 µM, first compound 0.316 µM): 107% | viability, T/C (second compound 0.0316 µM, first compound 1 µM): 107% | viability, T/C (second compound 0.0316 µM, first compound 3.16 µM): 99% | viability, T/C (second compound 0.0316 µM, first compound 10 µM): 93.7% | viability, T/C [3]: 89% | viability, T/C [4]: 107% | viability, T/C (second compound 0.1 µM, first compound 0.316 µM): 107% | viability, T/C (second compound 0.1 µM, first compound 1 µM): 103% | viability, T/C (second compound 0.1 µM, first compound 3.16 µM): 117% | viability, T/C (second compound 0.1 µM, first compound 10 µM): 95.5% | viability, T/C [5]: 102% | viability, T/C [6]: 103% | viability, T/C (second compound 0.316 µM, first compound 0.316 µM): 112% | viability, T/C (second compound 0.316 µM, first compound 1 µM): 112% | viability, T/C (second compound 0.316 µM, first compound 3.16 µM): 103% | viability, T/C (second compound 0.316 µM, first compound 10 µM): 86.1% | viability, T/C [7]: 112% | viability, T/C [8]: 101% | viability, T/C (second compound 1 µM, first compound 0.316 µM): 105% | viability, T/C (second compound 1 µM, first compound 1 µM): 111% | viability, T/C (second compound 1 µM, first compound 3.16 µM): 111% | viability, T/C (second compound 1 µM, first compound 10 µM): 86.9% | viability, T/C [9]: 103% | viability, T/C [10]: 106% | viability, T/C (second compound 3.16 µM, first compound 0.316 µM): 106% | viability, T/C (second compound 3.16 µM, first compound 1 µM): 115% | viability, T/C (second compound 3.16 µM, first compound 3.16 µM): 119% | viability, T/C (second compound 3.16 µM, first compound 10 µM): 87.2% | viability, T/C [11]: 166% | viability, T/C [12]: 178% | viability, T/C (second compound 10 µM, first compound 0.316 µM): 187% | viability, T/C (second compound 10 µM, first compound 1 µM): 202% | viability, T/C (second compound 10 µM, first compound 3.16 µM): 171% | viability, T/C (second compound 10 µM, first compound 10 µM): 88.9%
